From patent US9096550B2, “Bryostatin analogues and methods of making and using thereof” (UNIVERSITY OF UTAH RESEARCH FOUNDATION, priority 2008, dated 2015) come the findings set out here.

Common to all, as to type: cell-based, human
Test [1] has as its system cFos. Nature of the test: Induction of cFos in LNCaP cells (western blot). To be noted: LNCaP cells treated 2, 5 or 8 hrs. How it is done:
FIGS. 14A-C show the induction of cFos and phosphorylation of PKC at Y311 in LNCaP cells. […] The proteins from the lysates were separated by 10% SDS-PAGE, electroblotted to nitrocellulose membranes and probed with anti-cFos primary and anti-rabbit secondary antibodies, followed by ECL visualization. Data are representative of four independent experiments. […] The cFos signal was normalized to the β-actin signal to correct for loading and the response induced by 100 nM PMA at 2 hrs was taken as 100%. Data represent the means+SEM of four independent experiments. […] Data represent the means+SEM of three independent experiments.
LNCaP cells treated for 48 hours with the different drugs or with DMSO as control were washed and re-suspended in phosphate buffered saline. Yo-Pro-1 (Invitrogen, Carlsbad, Calif.) was added to a final concentration of 1 μM and the cells were incubated for 20 min at 4° C. in the dark. 7-Aminoactinomycin D (7-AAD) (Invitrogen, Carlsbad, Calif.) was then added at a 5 μg/mL final concentration 10 minutes before analysis by flow cytometry using the FACSCalibur system (Becton Dickinson, Mountain View, Calif.). Data were analyzed with FlowJo 7 (Tree Star Inc., Ashland, Oreg.). The Yo-Pro-1 positive cells were considered apoptotic and were expressed as % of total cells. […]

Test [2] deals with U937 cells. Nature of the test: Attachment of U937 cells. The note with it: for attachment of U937 cells: compound alone, 72 hours. How it is done:
(§1) U937 cells (Sundstrom, C.; Nilsson, K.: Establishment and characterization of a human histiocytic lymphoma cell line (U-937). Int. J. Cancer 1976, 17: 565-577.), purchased from ATCC (Manassas, Va.) and cultured in RPMI-1640 medium supplemented with 10% FBS (ATCC, Manassas, Va.), were plated in 35 mm dishes at a density of 2×10^5 living cells/ml and treated with different concentrations of the drugs or DMSO. After 72 hours, the number of cells in the supernatant (non-attached cells) and the number of attached cells (after trypsinization) were counted using a Beckman particle counter (Beckman Coulter Inc., Fullerton, Calif.). The number of attached cells is expressed as percent of total cells (FIGS. 8-10).
U937 cells were treated with PMA (0.1-100 nM), bryostatin 1 (1-1000 nM), the indicated compound (1-1000 nM), 10 nM PMA with different concentrations of bryostatin 1 (1-1000 nM) or 10 nM PMA with different concentrations of indicated compound (1-1000 nM) for 72 hours. The number of attached cells and total cells were counted and the attached cells were graphed as percent of total cells. The bars and error bars represent the average and the standard error of the mean of five independent experiment (FIGS. 8-10).
(§2) U937 cells (Sundstrom and Nilsson, 1976), purchased from ATCC (Manassas, Va.) and cultured in RPMI-1640 medium supplemented with 10% FBS (ATCC, Manassas, Va.), were plated in 35 mm dishes at a density of 1×10^5 living cells/ml and treated with different concentrations of the drugs or DMSO. After 72 hours, the number of cells in the supernatant (non-attached cells) and the number of attached cells (after trypsinization) were counted using a particle counter. The number of attached cells is expressed as percent of total cells.
U937 cells were treated with PMA (0.01-100 nM), bryostatin1 (0.1-1000 nM), analogue 12 (MERLE 28) (0.1-1000 nM), 10 nM PMA with different concentrations of bryostatin 1 (0.1-1000 nM) or 10 nM PMA with different concentrations of analogue 12 (0.1-1000 nM). The number of attached cells and total cells were counted and the attached cells were graphed as percent of total cells. The bars and error bars represent the average and the standard error of the mean of at least three independent experiments.
(§3) U-937 cells (Sundstrom and Nilsson, 1976), purchased from ATCC (Manassas, Va.) and cultured in RPMI-1640 medium supplemented with 10% FBS (ATCC, Manassas, Va.), were plated in 35 mm dishes at a density of 1×10^5 living cells/ml and treated with different concentrations of the drugs or DMSO. After 72 hours, the number of cells in the supernatant (non-attached cells) and the number of attached cells (after trypsinization) were counted using a particle counter. The number of attached cells is expressed as percent of total cells.
U-937 cells were treated with PMA (0.1-100 nM), bryostatin 1 (1-1000 nM), the indicated compound (1-1000 nM), 10 nM PMA with different concentrations of bryostatin 1 (1-1000 nM) or 10 nM PMA with different concentrations of indicated compound (1-1000 nM) for 72 hours. The number of attached cells and total cells were counted and the attached cells were graphed as percent of total cells. The bars and error bars represent the average and the standard error of the mean of at least three independent experiments.

Test [3] relates to U937 cells. As to the kind of experiment: Inhibition of U937 cell proliferation. To be noted: for inhibition of U937 cell proliferation: compound alone. How it is done:
as §1
U937 cells were treated with PMA (0.1-100 nM), bryostatin 1 (1-1000 nM), the indicated compound (1-1000 nM), 10 nM PMA with different concentrations of bryostatin 1 (1-1000 nM) or 10 nM PMA with different concentrations of indicated compound (1-1000 nM). The number of attached and non-attached cells was counted and the number of total cells was expressed as % of control. The bars and error bars represent the average and the standard error of the mean of five independent experiments (FIGS. 8-10).
as §2
U937 cells were treated with PMA (0.01-100 nM), bryostatin1 (0.1-1000 nM), analogue 12 (0.1-1000 nM), 10 nM PMA with different concentrations of bryostatin 1 (0.1-1000 nM) or 10 nM PMA with different concentrations of analogue 12 (0.1-1000 nM). The numbers of attached and non-attached cells were counted and the number of total cells was expressed as % of control. The bars and error bars represent the average and the standard error of the mean of at least three independent experiments.
as §3
U-937 cells were treated with PMA (0.1-100 nM), bryostatin 1 (1-1000 nM), the indicated compound (1-1000 nM), 10 nM PMA with different concentrations of bryostatin 1 (1-1000 nM) or 10 nM PMA with different concentrations of indicated compound (1-1000 nM). The number of attached and non-attached cells was counted and the number of total cells was expressed as % of control. The bars and error bars represent the average and the standard error of the mean of at least three independent experiments.

Where [4] appears, read: 10 nM PMA with different concentrations of compound.

Take `CCC/C=C/C=C/C(=O)O[C@H]1/C(=C/C(=O)OC)C[C@H]2C[C@H]([C@@H](C)O)OC(=O)C[C@H](O)C[C@@H]3C[C@H](OC(C)=O)C(C)(C)[C@](O)(C[C@@H]4C/C(=C/C(=O)OC)C[C@H](/C=C/C(C)(C)[C@]1(O)O2)O4)O3` [bryostatin 1]: in test [1], the “time course of cFos induction” value is on record as “largely lost by 5 hrs”. In addition, in test [2] (setting [4]), the “block of PMA-induced attachment of U937 cells” value is recorded as “blocks the effect of the phorbol ester in a dose-dependent manner”. Moreover, the entries for the “attachment of U937 cells” value in test [2] and in test [2] (listed as Bryostatin 1) were “much diminished effect” and “much less effect on either response”, respectively. In addition, in test [3] (setting [4]), the “block of PMA inhibition of U937 cell proliferation” value was “able to block the effect of PMA in a dose dependent manner”. Further, the “inhibition of U937 cell proliferation” value in test [3] is recorded as “not strongly antiproliferative”; in test [3] (listed as Bryostatin 1), “much less effect on either response”.
On to `CCCCCCCCCCCCCC(=O)O[C@@H]1[C@@H](C)[C@@]2(O)[C@@H](C=C(CO)C[C@]3(O)C(=O)C(C)=C[C@@H]23)[C@@H]2C(C)(C)[C@]12OC(C)=O` [PMA], for which, in test [1], the “time course of cFos induction” value is listed as “persisted for 5 hrs, with weak induction still evident at 8 hrs”. In addition, the “attachment of U937 cells” value in test [2] is listed as “induces attachment”. Besides, the “inhibition of U937 cell proliferation” value in test [3] was “inhibits cell proliferation”.
